Consider 5 molecules from US20090209644A1, “LIPOTOXICITY RELIEVING AGENT” (priority 2005, published 2009).

Structures are written as SMILES. Read-outs that look alike come from different tables or passages of the source.

For one assay, the system named is Min6 cells. Put plainly: Restoration of impaired insulin secretion in Min6 cells after palmitic acid load (Experimental Example 2). In kind it is cell-based, mouse. As to conditions: Min6, 0.4 mM palmitic acid load 48 h, 20 mM glucose; for insulin secretion, % of normal group: normal group = 100%. As to the method:
(1-1) Min6 cells suspended in DMEM medium (manufactured by Gibco) were seeded in a 24 well plate at 1.5×10^5 cells per well, and the cells were incubated overnight in 5% CO2 at 37° C. (1-2) To each well, palmitic acid was added to a concentration of 0.4 mM, and BSA not containing the fatty acid was added to a concentration of 0.5% (v/v), and the incubation was continued in 5% CO2 at 37° C. for 48 hours. (1-3) The cells were washed twice with PBS(−), and the incubation was continued in 5% CO2 at 37° C. for 48 hours in DMEM medium (manufactured by Sigma) after adding palmitic acid (palmitic acid group), oleic acid (oleic acid group), EPA (EPA group), or DHA (DHA group) at 50 μM, or in the absence of the fatty acid (control group). In the meanwhile, the Min6 cells cultured in the above (1-1) were incubated in the DMEM medium (manufactured by Sigma) for 48 hours as in the case of the above (1-2) but without adding the 0.4 mM palmitic acid (normal group), and these cells were washed twice with the PBS(−) and incubated in the DMEM medium (manufactured by Sigma) in the absence of the fatty acid in 5% CO2 at 37° C. for another 48 hours as in the case of the control group of the above (1-3) to prepare the sample (normal group). The stimulation with glucose was conducted by repeating the procedure of Experimental Example 1(2), and the sample that had been stimulated with 2.8 mM glucose and the sample that had been stimulated with 20 mM glucose were collected and the amount of insulin per mg of the protein were measured.

Assay [1] has as its system Langerhans' islet (pancreatic β-cell). The assay can be described thus: Glucose-stimulated insulin secretion of Langerhans' islet isolated from fed mice (Experimental Example 3). In kind it is in vivo, mice (C57BL/6J). To be noted: 20 mM glucose; for insulin secretion, % of control group: control = 100%. The text has this: Male mice (C57BL/6J, 8 week old, purchased from Clea Japan, Inc.) were fed on fish meal free F1 (manufactured by Funabashi Farms Co., Ltd.) for 1 week, and the mice were divided into 4 groups each including 9 to 10 mice. The 4 groups of mice were freely fed for 28 days on (1) fish meal free F1 (control group), (2) fish meal free F1 containing 20% by weight of tripalmitic acid added (palmitic acid group), (3) F1 feed not containing any fish meal having 20% by weight of tripalmitic acid and 5% by weight of EPA-E added (the group of palmitic acid plus EPA), and (4) F1 feed not containing any fish meal having 5% by weight of EPA-E added (EPA group). Before the start of the experiment, on 14th day, and on the final day, blood was taken from orbital venous plexus after fasting for 16 hours. The serum was separated, and blood free fatty acid was enzymatically measured by using NEFA Test Wako (Wako Pure Chemical Industries, Ltd.). Langerhans' islet was isolated by way of density gradient method from the pancreas that had been treated with collagenase, and cultivated in 10% (v/v) fetal bovine serum (purchased from Iwai Chemicals Company) and RPM 11640 medium) supplemented with 1% by weight of penicillin streptomycin (manufactured by Sigma) in 5% CO2 at 37° C. for 2 hours. The glucose-stimulated insulin secretion was then evaluated according to the procedure described in Experimental Example 1-(2). The Langerhans' islet was washed with PBS(−) and vigorously shaked in […] of TNE buffer (0.1M Tris-HCl, pH 7.4, 2M NaCl, 10 mM EDTA) to prepare the cell lysate. 20 μL of this cell lysate was added to 100 μL of chromogenic solution (1.2 μL of Hoechst 33258 (manufactured by Wako Pure Chemical Industries, Ltd.) added to 1 mL of TNE buffer), and the reaction was allowed to proceed at room temperature for at least 8 hours, and the measurement was conducted by using an excitation wavelength of 350 nm and a measurement wavelength of 450 nm. Similar evaluation was conducted by using bovine thymus DNA (manufactured by Sigma) to prepare a calibration curve to thereby enable determination of the DNA amount. Amount of insulin per μg of the DNA of the Langerhans' islet was measured.

A further assay relates to Langerhans' islet. Put plainly: Combined use of EPA and tolbutamide on palmitic acid-suppressed insulin secretion of isolated Langerhans' islet (Experimental Example 4). To be noted: mouse islets; for activity at 400 µM / activity at 5000 µM: Mus musculus, read-out: insulin secretion, % of control group; for activity at 400 µM / insulin secretion, % of control group / activity at 5000 µM: control = 100%. In kind it is cell-based, mice (C57BL/6J).

Assay [2] relates to Min6 cells from mouse pancreatic β-cell. The assay can be described thus: Inhibition (prophylaxis) of lipotoxicity-impaired glucose-stimulated insulin secretion in Min6 cells (Experimental Example 1). It counts as cell-based. As to conditions: for insulin secretion (amount of insulin per mg of the protein): stimulated with 20 mM glucose. The protocol:
Min6 cells from mouse pancreatic β-cell (provided by Dr. Miyazaki of Osaka University) suspended in DMEM medium (manufactured by GIBCO, purchased from Iwai Chemicals Company) were seeded in a 24 well plate at 1.5×10^5 cells per well, and the cells were incubated in 5% CO2 at 37° C. for 24 hours. The medium was replaced with DMEM medium (manufactured by Sigma) containing 0.5% (v/v) fatty acid free bovine serum albumin (hereinafter abbreviated as BSA) and 5.5 mM glucose, and incubated in 5% CO2 at 37° C. for 48 hours with or without (control group) one of the following fatty acids, 0.4 mM palmitic acid (palmitic acid group), 50 μM EPA (EPA group), or 0.4 mM palmitic acid and 50 μM EPA (the group of palmitic acid plus EPA). The supernatant was removed from the cell culture of (1), and the cells were washed twice with phosphate buffered saline (hereinafter abbreviated as PBS(−)), and after adding 500 μL of Krebs-Ringer-Bicarbonate-Hepes buffer (hereinafter abbreviated as KRBH buffer) containing 0.5% (v/v) fatty acid free BSA and 2.8 mM glucose, the incubated was continued in 5% CO2 at 37° C. for 1 hour. The supernatant was removed from the cell culture, and after adding 500 μL of KRBH buffer containing 0.5% (v/v) BSA and 2.8 mM glucose, the incubation was continued in 5% CO2 at 37° C. for 1 hour, and the supernatant was collected as the sample which had been stimulated with 2.8 mM glucose. Next, the cells were washed twice with PBS(−), and incubated in KRBH buffer containing 0.5% (v/v) BSA and 20 mM glucose in 5% CO2 at 37° C. for 1 hour. The supernatant was collected as the sample which had been stimulated with 20 mM glucose. The samples collected were evaluated for their insulin concentration by Levis insulin assay kit (manufactured by Shibayagi and purchased from Nakayama Co., Ltd.) and for their protein concentration by the method of […] (BCA kit), and determine the amount of insulin per mg of the protein.

A short description of assay [3]: Blood (serum) free fatty acid in palmitic acid fed mice (Experimental Example 3). It counts as in vivo, mice (C57BL/6J). To be noted: feed with 20% by weight tripalmitic acid, 28 days, vs control group. The text has this: Male mice (C57BL/6J, 8 week old, purchased from Clea Japan, Inc.) were fed on fish meal free F1 (manufactured by Funabashi Farms Co., Ltd.) for 1 week, and the mice were divided into 4 groups each including 9 to 10 mice. The 4 groups of mice were freely fed for 28 days on (1) fish meal free F1 (control group), (2) fish meal free F1 containing 20% by weight of tripalmitic acid added (palmitic acid group), (3) F1 feed not containing any fish meal having 20% by weight of tripalmitic acid and 5% by weight of EPA-E added (the group of palmitic acid plus EPA), and (4) F1 feed not containing any fish meal having 5% by weight of EPA-E added (EPA group). Before the start of the experiment, on 14th day, and on the final day, blood was taken from orbital venous plexus after fasting for 16 hours. The serum was separated, and blood free fatty acid was enzymatically measured by using NEFA Test Wako (Wako Pure Chemical Industries, Ltd.). […] The glucose-stimulated insulin secretion was then evaluated according to the procedure described in Experimental Example 1-(2).

Setting [4] is: islets of mice fed 20% tripalmitic acid 28 days.
The mark [5] stands for this setting: then 48 h without fatty acid (control group).
[6] abbreviates: islets of mice fed 5% EPA-E alone 28 days.
Setting [7] is: islets of mice fed 20% tripalmitic acid and 5% EPA-E 28 days.
The mark [8] stands for this setting: 0.4 mM palmitic acid plus 50 μM EPA, 5 mM tolbutamide or both, 20 mM glucose.
[9] abbreviates: 0.4 mM palmitic acid plus 50 μM EPA, 5 mM tolbutamide or both, 30 mM KCl.
Setting [10] is: 0.4 mM palmitic acid plus 50 μM EPA, 5 mM tolbutamide or both, stimulated with 20 mM glucose.
Where [11] appears, read: 0.4 mM palmitic acid plus 50 μM EPA, 5 mM tolbutamide or both, stimulated with 30 mM KCl.

Regarding `CCCCCCCC/C=C\CCCCCCCC(=O)O` [oleic acid], in the assay on Min6 cells (then 50 μM fatty acid 48 h), the “insulin secretion (amount of insulin per mg of the protein)” value came out at 0.000659 mg and the “insulin secretion, % of normal group” value amounted to 13.2%.

With `CCCCCCCCCCCCCCCC(=O)O` [palmitic acid], the “insulin secretion (amount of insulin per μg of the DNA of the Langerhans' islet)” value in assay [1] (setting [4]) is 0.0046 µg. For the same molecule, in assay [1] (setting [4]), the “insulin secretion, % of control group” value came to 63%. Moreover, the “insulin secretion (amount of insulin per mg of the protein)” value in the assay on Min6 cells (then 50 μM fatty acid 48 h) amounted to 0.000742 mg; in the assay with Min6 cells (setting [5]) it was 0.002481 mg; in assay [2] (Min6, 0.4 mM palmitic acid alone 48 h), 0.00091 mg. Moreover, the figures for the “insulin secretion, % of normal group” value with Min6 cells (then 50 μM fatty acid 48 h) and in the assay with Min6 cells (setting [5]) were 14.8% and 49.6%, respectively. The activity at 400 µM in the assay with Langerhans' islet (0.4 mM palmitic acid alone, 20 mM glucose) was determined as 55.6%; in the assay with Langerhans' islet (0.4 mM palmitic acid alone, 30 mM KCl), 39.3%; in assay [2] (Mus musculus, Min6, 0.4 mM palmitic acid alone 48 h, 20 mM glucose, control = 100%, read-out: insulin secretion, % of control group), 23.7%. The “insulin secretion (amount of insulin per 1 ng DNA of the Langerhans' islet)” value is recorded as 572 pg in the assay on Langerhans' islet (0.4 mM palmitic acid alone, stimulated with 20 mM glucose) and 229 pg with Langerhans' islet (0.4 mM palmitic acid alone, stimulated with 30 mM KCl). Further, in assay [3], the “serum free fatty acid concentration” value is on record as “increased more significantly with time”.

As for `CC/C=C\C/C=C\C/C=C\C/C=C\C/C=C\CCCC(=O)O` [EPA, eicosapentaenoic acid], the results for the “insulin secretion (amount of insulin per μg of the DNA of the Langerhans' islet)” value in assay [1] (setting [6]) and in assay [1] (setting [7]) were 0.0089 µg and 0.0082 µg, respectively. Besides, the “insulin secretion, % of control group” value in assay [1] (setting [6]) was found to be 121%; in assay [1] (setting [7]) it was 111%; in the assay with Langerhans' islet (setting [8]), 80.0%; with Langerhans' islet (setting [9]), 72.4%; in assay [2] (Min6, 0.4 mM palmitic acid and 50 μM EPA 48 h, 20 mM glucose, control = 100%), 54.6%. Also, the “insulin secretion (amount of insulin per mg of the protein)” value with Min6 cells (then 50 μM fatty acid 48 h) stood at 0.004278 mg; in assay [2] (Min6, 50 μM EPA alone 48 h), 0.003664 mg; in assay [2] (Min6, 0.4 mM palmitic acid and 50 μM EPA 48 h), 0.002096 mg. In addition, the “insulin secretion, % of normal group” value in the assay on Min6 cells (then 50 μM fatty acid 48 h) was determined as 85.4%. Besides, the “insulin secretion (amount of insulin per 1 ng DNA of the Langerhans' islet)” value came to 823 pg in the assay on Langerhans' islet (setting [10]) and 422 pg with Langerhans' islet (setting [11]). The activity at 50 µM in assay [2] (Mus musculus, Min6, 50 μM EPA alone 48 h, 20 mM glucose, control = 100%, read-out: insulin secretion, % of control group) was 95.5%.

As for `CCCCNC(=O)NS(=O)(=O)c1ccc(C)cc1` [tolbutamide], the activity at 5000 µM in the assay on Langerhans' islet (setting [8]) came to 65.4%; in the assay with Langerhans' islet (setting [9]), 54.2%. The “insulin secretion (amount of insulin per 1 ng DNA of the Langerhans' islet)” value stood at 673 pg with Langerhans' islet (setting [10]) and 316 pg in the assay on Langerhans' islet (setting [11]).

For `CC/C=C\C/C=C\C/C=C\C/C=C\C/C=C\C/C=C\CCC(=O)O` [DHA, docosahexaenoic acid], in the assay with Min6 cells (then 50 μM fatty acid 48 h), the “insulin secretion (amount of insulin per mg of the protein)” value turned out to be 0.004073 mg and the “insulin secretion, % of normal group” value was found to be 81.4%.
